# Source: patent US20230159510A1, “NOVEL PRMT5 INHIBITORS” (AMGEN INC., priority 2020, published 2023)
# Like-named read-outs stand apart in the source and are kept apart here.
# What was measured:
# HCT116 WT cells = experiment: HCT116 proliferation assay, WT cells (CellTiter-Glo, 6 days); format: cell-based; settings: Homo sapiens, HCT-116, 144 h, read-out: Prolif_HCT116-WT IC50
# Method in brief: (§1)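 Both lines grow in RPMI 1640 containing 10% fetal bovine serum. After an overnight rest, they receive compound at up to 1 or 10 µM in threefold serial dilutions, with vehicle wells holding DMSO only.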
# PRMT5/MEP50 = PRMT5/MEP50 (Homo sapiens, UniProt O14744); experiment: MTase-Glo methyl transferase assay, Method A (Histone H4 peptide, 1 µM MTA, 24 h pre-incubation); format: biochemical; design: made in house; settings: read-out: PRMT5 MTase Glo Ki (nM, Meth. A)
# Method in brief: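 PRMT5/MEP50 (10 nM) pre-incubated 24 h with compound, 5 µM SAM and 1 µM MTA, then reaction started with 1 µM Histone H4 (1-21) peptide and run 2 h at room temperature in Tris pH 8.0 buffer. SAH formed detected by MTase-Glo luminescence; IC50 and KI from dose-response curves.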
# HCT116 MTAP null cells = experiment: HCT116 proliferation assay, MTAP null cells (CellTiter-Glo, 6 days); format: cell-based; settings: 144 h, read-out: Protif_ HCT116-MTAP null IC50
# Method in brief: as §1
# Sequence of PRMT5/MEP50 (O14744 whole entry): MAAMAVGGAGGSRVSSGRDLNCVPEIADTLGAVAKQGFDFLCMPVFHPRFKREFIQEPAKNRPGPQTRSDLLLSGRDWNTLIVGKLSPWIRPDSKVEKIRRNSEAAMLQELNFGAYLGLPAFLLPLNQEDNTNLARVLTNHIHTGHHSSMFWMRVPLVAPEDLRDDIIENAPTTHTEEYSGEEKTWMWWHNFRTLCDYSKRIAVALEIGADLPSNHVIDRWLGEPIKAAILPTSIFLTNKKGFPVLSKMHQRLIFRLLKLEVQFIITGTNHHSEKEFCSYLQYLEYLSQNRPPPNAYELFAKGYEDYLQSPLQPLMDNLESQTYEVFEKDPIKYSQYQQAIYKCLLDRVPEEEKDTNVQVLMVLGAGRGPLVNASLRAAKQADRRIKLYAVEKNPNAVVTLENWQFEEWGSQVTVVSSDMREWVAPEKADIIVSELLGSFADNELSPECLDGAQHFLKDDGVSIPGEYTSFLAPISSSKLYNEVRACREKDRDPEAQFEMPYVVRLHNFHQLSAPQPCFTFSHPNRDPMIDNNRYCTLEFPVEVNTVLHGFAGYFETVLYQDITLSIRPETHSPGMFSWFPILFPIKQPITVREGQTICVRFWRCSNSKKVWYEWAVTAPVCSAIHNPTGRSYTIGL
# Sequence of PRMT5/MEP50 (Q9BQA1 whole entry partner): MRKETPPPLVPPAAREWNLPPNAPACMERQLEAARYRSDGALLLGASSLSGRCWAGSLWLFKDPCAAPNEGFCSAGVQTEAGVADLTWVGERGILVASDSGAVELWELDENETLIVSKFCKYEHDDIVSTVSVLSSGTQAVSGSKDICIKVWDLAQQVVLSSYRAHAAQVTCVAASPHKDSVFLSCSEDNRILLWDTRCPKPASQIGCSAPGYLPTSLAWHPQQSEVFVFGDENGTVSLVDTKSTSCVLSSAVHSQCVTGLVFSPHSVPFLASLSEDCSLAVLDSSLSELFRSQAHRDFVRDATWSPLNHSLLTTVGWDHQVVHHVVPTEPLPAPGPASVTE
SMILES,IC50 (HCT116 WT cells) [nM],Ki (PRMT5/MEP50) [nM],IC50 (HCT116 MTAP null cells; HCT116-MTAP null) [nM],IC50 (HCT116 MTAP null cells) [nM]
"C[C@H](c1ncccn1)N(Cc1ccc(C(F)(F)F)cn1)C(=O)c1ccc2nc(N)cc(Cl)c2c1 [Example 433, 2-amino-4-chloro-N-((1R)-1-(2-pyrimidinyl)ethyl)-N-((5-(trifluoromethyl)-2-pyridinyl)methyl)-6-quinolinecarboxamide]",1170,1.26,821,
"C[C@H](c1nccs1)N(Cc1ccc(Br)nn1)C(=O)c1ccc2nc(N)c(Br)cc2c1 [Example 435, 2-amino-3-bromo-N-((6-bromo-3-pyridazinyl)methyl)-N-((1R)-1-(1,3-thiazol-2-yl)ethyl)-6-quinolinecarboxamide]",3280,0.08,66,
"Cc1cc2cc(C(=O)N(Cc3ccc(C#N)cn3)[C@H](C)c3ncccn3)c(Cl)cc2nc1N [Example 438, 2-amino-7-chloro-N-((5-cyano-2-pyridinyl)methyl)-3-methyl-N-((1R)-1-(2-pyrimidinyl)ethyl)-6-quinolinecarboxamide]",8790,0.76,368,
"[2H]C([2H])([2H])c1cc2cc(C(=O)N(Cc3ccc(C(F)(F)F)cn3)[C@H](C)c3ncccc3F)ccc2nc1N [Example 440, (R)-2-amino-N-(1-(3-fluoropyridin-2-yl)ethyl)-3-(methyl-d3)-N-((5-(trifluoromethyl)pyridin-2-yl)methyl)quinoline-6-carboxamide]",690,< 0.1,,38
"[2H]C([2H])([2H])c1cc2cc(C(=O)N(Cc3ccc(C#N)cn3)[C@H](C)c3ncccn3)ccc2nc1N [Example 441, (R)-2-amino-N-((5-cyanopyridin-2-yl)methyl)-3-(methyl-d3)-N-(1-(pyrimidin-2-yl)ethyl)quinoline-6-carboxamide]",2810,0.06,107,
"Cc1cc2cc(C(=O)N(Cc3ccc(C(F)(F)F)cn3)C[C@H](C)C(F)(F)F)ccc2nc1N [Example 458, 2-amino-3-methyl-N-((2S)-3,3,3-trifluoro-2-methylpropyl)-N-((5-(trifluoromethyl)-2-pyridinyl)methyl)-6-quinolinecarboxamide]",> 10000,0.84,,590
"Cc1cc2cc(C(=O)N(Cc3ccc(C#N)cn3)[C@H](C)c3ncccn3)ccc2nc1N [Example 502, (R)-2-amino-N-((5-cyanopyridin-2-yl)methyl)-3-methyl-N-(1-(pyrimidin-2-yl)ethyl)quinoline-6-carboxamide]",3260,0.06,109,
"Cc1cc2cc(C(=O)N(Cc3ccc(Cl)cn3)[C@H](C)c3ncccn3)ccc2nc1N [Example 504, 2-amino-N-((5-chloro-2-pyridinyl)methyl)-3-methyl-N-((1R)-1-(2-pyrimidinyl)ethyl)-6-quinolinecarboxamide]",1360,0.05,49,
"Cc1cc2cc(C(=O)N(Cc3ccc(C(F)F)cn3)[C@H](C)c3ncccn3)ccc2nc1N [Example 508, 2-amino-N-((5-(difluoromethyl)-2-pyridinyl)methyl)-3-methyl-N-((1R)-1-(2-pyrimidinyl)ethyl)-6-quinolinecarboxamide]",1700,0.73,56,
"Cc1cc2cc(C(=O)N(Cc3ccc(C(F)(F)F)nc3C)[C@H](C)c3ncccn3)ccc2nc1N [Example 509, 2-amino-3-methyl-N-((2-methyl-6-(trifluoromethyl)-3-pyridinyl)methyl)-N-((1R)-1-(2-pyrimidinyl)ethyl)-6-quinolinecarboxamide]",4120,0.13,137,
"Cc1cc2cc(C(=O)N(Cc3ccc(C(F)(F)F)nn3)[C@H](C)c3ncccc3F)ccc2nc1N [Example 510, 2-amino-N-((1R)-1-(3-fluoro-2-pyridinyl)ethyl)-3-methyl-N-((6-(trifluoromethyl)-3-pyridazinyl)methyl)-6-quinolinecarboxamide]",1910,0.32,70,
"C[C@H](c1ncccn1)N(Cc1ccc(C(F)(F)F)cn1)C(=O)c1cnc2nc(N)c(Br)cc2c1 [Example 512, 7-amino-6-bromo-N-((1R)-1-(2-pyrimidinyl)ethyl)-N-((5-(trifluoromethyl)-2-pyridinyl)methyl)-1,8-naphthyridine-3-carboxamide]",3100,0.13,121,
"Cc1cc2cc(C(=O)N(Cc3cc(C#N)ccn3)[C@H](C)c3ncccn3)ccc2nc1N [Example 513, 2-amino-N-((4-cyano-2-pyridinyl)methyl)-3-methyl-N-((1R)-1-(2-pyrimidinyl)ethyl)-6-quinolinecarboxamide]",> 10000,2.61,552,
"Cc1cc2cc(C(=O)N(Cc3ccc(Br)nn3)[C@H](C)c3nccs3)ccc2nc1N [Example 514, 2-amino-N-((6-bromo-3-pyridazinyl)methyl)-3-methyl-N-((1R)-1-(1,3-thiazol-2-yl)ethyl)-6-quinolinecarboxamide]",625,0.002,28,
"Cc1cc2cc(C(=O)N(Cc3ccc(C(F)(F)F)nn3)[C@@H]3CCOc4ccc(F)nc43)ccc2nc1N [Example 515, (R)-2-amino-N-(6-fluoro-3,4-dihydro-2H-pyrano[3,2-b]pyridin-4-yl)-3-methyl-N-((6-(trifluoromethyl)pyridazin-3-yl)methyl)quinoline-6-carboxamide]",480,0.02,23,
"Cc1cc2cc(C(=O)N(Cc3ccc(C(F)(F)F)cn3)[C@H](C)c3cnccn3)cnc2nc1N [Example 538, 7-amino-6-methyl-N-((1R)-1-(2-pyrazinyl)ethyl)-N-((5-(trifluoromethyl)-2-pyridinyl)methyl)-1,8-naphthyridine-3-carboxamide]",> 10000,0.68,732,

# More lines, main results first:
IC50 (HCT116 WT cells) [nM],Ki (PRMT5/MEP50) [nM],IC50 (HCT116 MTAP null cells; HCT116-MTAP null) [nM],SMILES,IC50 (HCT116 MTAP null cells) [nM]
2420,< 0.1,49,"C[C@H](c1ncccn1)N(Cc1ccc(C(F)(F)F)cn1)C(=O)c1ccc2nc(N)c(Br)cc2c1 [Example 434, 2-amino-3-bromo-N-((1R)-1-(2-pyrimidinyl)ethyl)-N-((5-(trifluoromethyl)-2-pyridinyl)methyl)-6-quinolinecarboxamide]",
3720,0.14,198,"Cc1cc2cc(C(=O)N(Cc3ccc(C(F)(F)F)cn3)CC(C)C)c(Cl)cc2nc1N [Example 436, 2-amino-7-chloro-3-methyl-N-(2-methylpropyl)-N-((5-(trifluoromethyl)-2-pyridinyl)methyl)-6-quinolinecarboxamide]",
1350,0.29,76,"Cc1cc2cc(C(=O)N(Cc3ccc(C(F)(F)F)cn3)[C@H](C)c3ncccn3)c(Cl)cc2nc1N [Example 437, 2-amino-7-chloro-3-methyl-N-((1R)-1-(2-pyrimidinyl)ethyl)-N-((5-(trifluoromethyl)-2-pyridinyl)methyl)-6-quinolinecarboxamide]",
> 10000,1.19,344,"Cc1cc2cc(C(=O)N(Cc3cncc(Cl)c3)Cc3ccc(C(F)(F)F)cn3)ccc2nc1N [Example 439, 2-amino-N-((5-chloro-3-pyridinyl)methyl)-3-methyl-N-((5-(trifluoromethyl)-2-pyridinyl)methyl)-6-quinolinecarboxamide]",
> 10000,6.87,969,"Cc1cc2cc(C(=O)N(Cc3ccc(C(F)(F)F)cn3)CC(F)(F)F)ccc2nc1N [Example 442, 2-amino-3-methyl-N-(2,2,2-trifluoroethyl)-N-((5-(trifluoromethyl)-2-pyridinyl)methyl)-6-quinolinecarboxamide]",
10300,2.51,765,"Cc1cc2cc(C(=O)N(Cc3ccc(C(F)(F)F)cn3)[C@@H]3COC[C@H]3O)ccc2nc1N [Example 505, 2-amino-N-((3R,4S)-4-hydroxytetrahydro-3-furanyl)-3-methyl-N-((5-(trifluoromethyl)-2-pyridinyl)methyl)-6-quinolinecarboxamide]",
1160,0.01,107,"Cc1cc2c(CN(Cc3ccc(C(F)(F)F)cn3)C(=O)c3ccc4nc(N)c(C)cc4c3)ccnc2[nH]1 [Example 506, 2-amino-3-methyl-N-((2-methyl-1H-pyrrolo[2,3-b]pyridin-4-yl)methyl)-N-((5-(trifluoromethyl)-2-pyridinyl)methyl)-6-quinolinecarboxamide]",
913,0.15,46,"COC[C@@H](C)N(Cc1ccc(C(F)(F)F)cn1)C(=O)c1ccc2nc(N)c(C)cc2c1 [Example 507, 2-amino-N-((2R)-1-methoxy-2-propanyl)-3-methyl-N-((5-(trifluoromethyl)-2-pyridinyl)methyl)-6-quinolinecarboxamide]",
2340,0.14,192,"COCC(COC)N(Cc1ccc(C(F)(F)F)cn1)C(=O)c1ccc2nc(N)c(C)cc2c1 [Example 511, 2-amino-N-(1,3-dimethoxy-2-propanyl)-3-methyl-N-((5-(trifluoromethyl)-2-pyridinyl)methyl)-6-quinolinecarboxamide]",
5960,0.51,701,"Cc1cc2cc(C(=O)N(Cc3ccc(C(F)(F)F)cn3)Cc3ncccc3F)cnc2nc1N [Example 537, 7-amino-N-((3-fluoropyridin-2-yl)methyl)-6-methyl-N-((5-(trifluoromethyl)pyridin-2-yl)methyl)-1,8-naphthyridine-3-carboxamide]",
